{"source": "paper PMC11999280", "about": "“Design and screening of novel endosomal escape compounds that enhance functional delivery of oligonucleotides in vitro” (Molecular Therapy. Nucleic Acids, 2025)", "type_in_all_cases": "cell-based", "key": {"[1]": {"tested_on": "mCherry-GAL9 expressing HEK293 cells", "assay": "GAL9 recruitment assay, HEK293", "settings": "calculated mean from >3 independent exp.", "outline": "(§1)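 Endosomal remodeling was inferred from recruitment of stably expressed mCherry-GAL9 into intracellular structures, quantified by confocal image analysis after compound dose-response treatment, fixation and Hoechst nuclear staining.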"}, "[2]": {"tested_on": "mCherry-GAL9 expressing NCI-H358 cells", "assay": "GAL9 recruitment assay, NCI-H358", "settings": "calculated mean from >3 independent exp.", "outline": "as §1"}, "[3]": {"tested_on": "mCherry-GAL9 expressing HeLa cells", "assay": "GAL9 recruitment assay, HeLa", "settings": "calculated mean from >3 independent exp.", "outline": "as §1"}, "[4]": {"tested_on": "mCherry-GAL9 expressing U2OS cells", "assay": "GAL9 recruitment assay, U2OS", "settings": "calculated mean from >3 independent exp.", "outline": "as §1"}, "[5]": {"tested_on": "mCherry-GAL9 expressing HuH7 cells", "assay": "GAL9 recruitment assay, HuH7", "settings": "calculated mean from >3 independent exp.", "outline": "as §1"}, "[6]": {"tested_on": "cell lines carrying an mCherry-GAL9-reporter", "assay": "GAL9 puncta formation upon EEE dose escalation (images)", "settings": "dose escalation 0.31 to 10 μM", "experimental": "We further studied endosomal leakage by quantifying GAL9 recruitment upon EEE dose escalation, from 0.31 to 10 μM. For this purpose, we used cell lines carrying an mCherry-GAL9-reporter, where endosomal rupture could be quantified by measuring GAL9 clustering as a puncta event representative of endosomal remodeling.\nExperiments assessing GAL9 localization as an indicator for endosomal remodeling were performed as previously described[15] using 8× stablemCherry-GAL9 expressing cell lines, SHSY5Y, U2OS, 16HBE, NCI-H358, HuH7, HepG2, HEK293, and HeLa. For mCherry-GAL9 recruitment, 3,000 or 6,500 cells/well (depending upon cell line) were seeded into 384-well CellCarrier Ultra plates 24 h prior to treatment (PerkinElmer, catalog no. 6007558). An Echo 655T acoustic dispenser (Labcyte) was used for EEE dose-response preparation by transferring to the cell plate. At assay endpoints, cells were PBS washed, 4% paraformaldehyde fixed at room temperature […] (VWR, catalog no. 9713.1000), and nuclei stained with PBS +1 μg/mL Hoechst 33342 (Thermo Fisher Scientific, catalog no. H21492).\nImaging was performed using a spinning-disk confocal microscope (Yokogawa: CV8000) with a ×20w objective (numerical aperture 1.0). Cells and mCherry-GAL9 structure identification and quantification were done using Columbus image-analysis software (PerkinElmer version 2.9.0). […]"}, "[7]": {"tested_on": "mCherry-GAL9 expressing HepG2 cells", "assay": "GAL9 recruitment assay, HepG2", "settings": "calculated mean from >3 independent exp.", "outline": "as §1"}, "[8]": {"tested_on": "HeLa_Luc705 cells (pLuc/705 splice-switching reporter)", "assay": "Functional 705-SSO delivery, luciferase splice-switching assay", "settings": "for Luciferase expression compared to reference: mean from >3 independent experiments", "outline": "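Cells seeded at 10,000/well were pre-incubated 24 h with 1–2 μM 2′-O-methyl phosphorothioate 705-SSO, then exposed to endosomal escape enhancer at the stated concentrations. After 24 h, cells were lysed in 0.1% Triton X-100 and firefly luciferase luminescence was read as the splice-correction signal. LF2000 lipofection with 100–200 nM SSO served as transfection control.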"}, "[9]": {"tested_on": "mCherry-GAL9 expressing 16HBE cells", "assay": "GAL9 recruitment assay, 16HBE", "settings": "calculated mean from >3 independent exp.", "outline": "as §1"}, "[10]": {"tested_on": "mCherry-GAL9 expressing SHSY5Y cells", "assay": "GAL9 recruitment assay, SHSY5Y", "settings": "calculated mean from >3 independent exp.", "outline": "as §1"}, "[11]": {"tested_on": "PPIB mRNA in primary human hepatocytes", "assay": "PPIB siRNA knockdown, qPCR", "settings": "EEE32 at 2 μM with GalNAc-siPPIB", "experimental": "Studies of siRNA knockdown therapeutics were performed in primary human hepatocytes using EEE32-mediated enhancement. We aimed to target peptidylpropyl isomerase B (PPIB) mRNA by using siRNA (siPPIB) either alone or together with the EEE32 and comparing them with GalNAc-conjugated siRNA (GalNAc-siPPIB), which is considered a potent human liver uptake enhancer.[30] […] However, the use of EEE32 at a 2-μM concentration enhanced GalNAc-siPPIB activity, improving the knockdown capacity by approximately 10-fold (Figure 5B, top). Additionally, no significant differences indicating compromised cell viability were observed when measuring systematic decreases in RNA yield from both groups (Figure 5B, bottom).\nHuman primary hepatocytes obtained from a commercial supplier (QNT lot, BioIVT) were cultured in rat tail collagen I-coated 96-well plates (Corning, catalog no. 354407) using William’s E Medium (A1217601,Thermo Fisher) supplemented with thawing and plating supplements (Thermo Fisher, catalog no. CM3000) (day 0). […]"}, "[12]": {"settings": "HeLa-Luc705 + 1 µM SSO, EEE 0.5 µM"}, "[13]": {"settings": "HeLa-Luc705 + 1 µM SSO, EEE 2 µM"}, "[14]": {"settings": "HeLa-Luc705 + 1 µM SSO, EEE 4 µM"}, "[15]": {"settings": "HeLa-Luc705 + 1 µM SSO, EEE 5 µM"}}, "data": [{"molecule": "COc1nn(C2CCN(C)CC2)cc1Nc1ncc(F)c(-n2ccc3c(C#N)cccc32)n1", "note": "[EEE8]", "values": [{"measurement": "Gal9 response compared to reference", "setting": "[1]; EEE 0.31 µM", "value": 0.027}, {"measurement": "Gal9 response compared to reference", "setting": "[1]; EEE 0.62 µM", "value": 0.052}, {"measurement": "Gal9 response compared to reference", "setting": "[1]; EEE 1.25 µM", "value": 0.309}, {"measurement": "Gal9 response compared to reference", "setting": "[1]; EEE 2.5 µM", "value": 0.657}, {"measurement": "Gal9 response compared to reference", "setting": "[1]; EEE 5 µM", "value": 0.605}, {"measurement": "Gal9 response compared to reference", "setting": "[1]; EEE 10 µM", "value": 0.329}, {"measurement": "Gal9 response compared to reference", "setting": "[2]; EEE 0.31 µM", "value": 0.017}, {"measurement": "Gal9 response compared to reference", "setting": "[2]; EEE 0.62 µM", "value": 0.032}, {"measurement": "Gal9 response compared to reference", "setting": "[2]; EEE 1.25 µM", "value": 0.148}, {"measurement": "Gal9 response compared to reference", "setting": "[2]; EEE 2.5 µM", "value": 0.553}, {"measurement": "Gal9 response compared to reference", "setting": "[2]; EEE 5 µM", "value": 0.623}, {"measurement": "Gal9 response compared to reference", "setting": "[2]; EEE 10 µM", "value": 0.457}, {"measurement": "Gal9 response compared to reference", "setting": "[3]; EEE 0.31 µM", "value": 0.004}, {"measurement": "Gal9 response compared to reference", "setting": "[3]; EEE 0.62 µM", "value": 0.009}, {"measurement": "Gal9 response compared to reference", "setting": "[3]; EEE 1.25 µM", "value": 0.105}, {"measurement": "Gal9 response compared to reference", "setting": "[3]; EEE 2.5 µM", "value": 0.319}, {"measurement": "Gal9 response compared to reference", "setting": "[3]; EEE 5 µM", "value": 0.459}, {"measurement": "Gal9 response compared to reference", "setting": "[3]; EEE 10 µM", "value": 0.198}, {"measurement": "Gal9 response compared to reference", "setting": "[4]; EEE 0.31 µM", "value": 0.012}, {"measurement": "Gal9 response compared to reference", "setting": "[4]; EEE 0.62 µM", "value": 0.013}, {"measurement": "Gal9 response compared to reference", "setting": "[4]; EEE 1.25 µM", "value": 0.029}, {"measurement": "Gal9 response compared to reference", "setting": "[4]; EEE 2.5 µM", "value": 0.234}, {"measurement": "Gal9 response compared to reference", "setting": "[4]; EEE 5 µM", "value": 0.490}, {"measurement": "Gal9 response compared to reference", "setting": "[4]; EEE 10 µM", "value": 0.563}, {"measurement": "Gal9 response compared to reference", "setting": "[5]; EEE 0.31 µM", "value": 0.010}, {"measurement": "Gal9 response compared to reference", "setting": "[5]; EEE 0.62 µM", "value": 0.016}, {"measurement": "Gal9 response compared to reference", "setting": "[5]; EEE 1.25 µM", "value": 0.078}, {"measurement": "Gal9 response compared to reference", "setting": "[5]; EEE 2.5 µM", "value": 0.313}, {"measurement": "Gal9 response compared to reference", "setting": "[5]; EEE 5 µM", "value": 0.228}, {"measurement": "Gal9 response compared to reference", "setting": "[5]; EEE 10 µM", "value": 0.160}, {"measurement": "EEE concentration with clear GAL9 puncta formation", "setting": "[6]", "value": "≥ 1.25", "unit": "µM"}, {"measurement": "Gal9 response compared to reference", "setting": "[7]; EEE 0.31 µM", "value": 0.007}, {"measurement": "Gal9 response compared to reference", "setting": "[7]; EEE 0.62 µM", "value": 0.008}, {"measurement": "Gal9 response compared to reference", "setting": "[7]; EEE 1.25 µM", "value": 0.011}, {"measurement": "Gal9 response compared to reference", "setting": "[7]; EEE 2.5 µM", "value": 0.075}, {"measurement": "Gal9 response compared to reference", "setting": "[7]; EEE 5 µM", "value": 0.511}, {"measurement": "Gal9 response compared to reference", "setting": "[7]; EEE 10 µM", "value": 0.529}, {"measurement": "Luciferase expression compared to reference", "setting": "[8]; [12]", "value": 0.717}, {"measurement": "Luciferase expression compared to reference", "setting": "[8]; [13]", "value": 2.253}, {"measurement": "Luciferase expression compared to reference", "setting": "[8]; [14]", "value": 11.227}, {"measurement": "Luciferase expression compared to reference", "setting": "[8]; [15]", "value": 31.147}, {"measurement": "Luciferase expression compared to reference", "setting": "[8]; HeLa-Luc705 + 2 µM SSO, EEE 5 µM", "value": 52.876}, {"measurement": "EEE dose required to show splice-switching above 10-fold normalized to SSO only", "setting": "[8]; dose-response, 1 μM SSO", "value": 4.5, "unit": "μM"}, {"measurement": "Gal9 response compared to reference", "setting": "[9]; EEE 0.31 µM", "value": 0.011}, {"measurement": "Gal9 response compared to reference", "setting": "[9]; EEE 0.62 µM", "value": 0.035}, {"measurement": "Gal9 response compared to reference", "setting": "[9]; EEE 1.25 µM", "value": 0.180}, {"measurement": "Gal9 response compared to reference", "setting": "[9]; EEE 2.5 µM", "value": 0.503}, {"measurement": "Gal9 response compared to reference", "setting": "[9]; EEE 5 µM", "value": 0.638}, {"measurement": "Gal9 response compared to reference", "setting": "[9]; EEE 10 µM", "value": 0.492}, {"measurement": "Gal9 response compared to reference", "setting": "[10]; EEE 0.31 µM", "value": 0.014}, {"measurement": "Gal9 response compared to reference", "setting": "[10]; EEE 0.62 µM", "value": 0.082}, {"measurement": "Gal9 response compared to reference", "setting": "[10]; EEE 1.25 µM", "value": 0.694}, {"measurement": "Gal9 response compared to reference", "setting": "[10]; EEE 2.5 µM", "value": 0.629}, {"measurement": "Gal9 response compared to reference", "setting": "[10]; EEE 5 µM", "value": 0.567}, {"measurement": "Gal9 response compared to reference", "setting": "[10]; EEE 10 µM", "value": 0.278}]}, {"molecule": "COc1nn(C2CCNC(C)(C)C2)cc1Nc1ncc(F)c(-n2ccc3c(C#N)cccc32)n1", "note": "(centres unmarked) [EEE32]", "values": [{"measurement": "Improvement of GalNAc-siPPIB knockdown capacity", "setting": "[11]", "value": "approximately 10 fold"}, {"measurement": "Luciferase expression compared to reference", "setting": "[8]; [12]", "value": 3.743}, {"measurement": "Luciferase expression compared to reference", "setting": "[8]; [13]", "value": 115.294}, {"measurement": "Luciferase expression compared to reference", "setting": "[8]; [14]", "value": 111.401}, {"measurement": "Luciferase expression compared to reference", "setting": "[8]; [15]", "value": 66.337}, {"measurement": "Splice-switching with 24-h SSO pre-incubation relative to SSO co-treatment", "setting": "[8]; dose response, luciferase readout at time points after EEE addition", "value": "around 17 times"}, {"measurement": "Splice-switching enhancement", "setting": "[8]; using 2–2.5 μM EEE", "value": "above 100 fold"}]}]}
